Laboratory results published in patent US20200031778A1, “NOVEL 5-SUBSTITUTED IMIDAZOLYLMETHYL DERIVATIVES” (Bayer CropScience Aktiengesellschaft, priority 2016, published 2020).

Test: Log P by HPLC on reversed phase columns (EEC directive 79/831 Annex V.A8; methods [a], [b], [c])
Type: physicochemical
Settings: not given
Method in brief: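 Log P derived from retention times, interpolated linearly between bracketing straight-chain alkan-2-ones (3–16 carbons) of known Log P. Eluents ran acetonitrile 10% to 95% against water with 0.1% formic acid ([a], acidic), 0.001 M ammonium acetate ([b], neutral) or 0.1% phosphoric acid ([c], acidic); UV read-out.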

| LogP | Compound |
| --- | --- |
| 2.98^[a] | N#Cc1cncn1CC(O)(c1ccc(C(F)(F)F)cc1Cl)C1CC1 (stereo not shown) [I-418] |
| 2.30^[a] | N#Cc1cncn1CC(O)(CC1CC1)c1ccc(F)c(F)c1 (stereo not shown) [I-489] |
| 2.71^[a] | CC(C)(C)C(O)(Cn1cncc1C#N)c1ccc(F)cc1F (stereo not shown) [I-385] |
| 3.67^[a] | N#Cc1cncn1CC(=O)c1cnc(Oc2ccc(S(F)(F)(F)(F)F)cc2)cc1C(F)(F)F [IX-81] |
| 2.35^[a] | C=C(C)CC(O)(Cn1cncc1C#N)C1(Cl)CC1 (stereo not shown) [I-675] |
| 2.71^[a] | N#Cc1cncn1CC(O)(CC1CC1)c1cc(F)c(F)c(Cl)c1 (stereo not shown) [I-492] |
| 2.26^[a] | N#Cc1cncn1CC(O)(c1cc(F)cc(F)c1Cl)C1(F)CC1 (stereo not shown) [I-569] |
| 3.31^[a] | C[Si](C)(C#CC(O)(Cn1cncc1C#N)C1(Cl)CC1)c1ccccc1 (stereo not shown) [I-594] |
| 2.39^[a] | CCCC(O)(Cn1cncc1C#N)c1ccc(F)cc1F (stereo not shown) [I-400] |
| 4.01^[a] | N#Cc1cncn1CC(O)(c1ccc(C#CC2CCCC2)cc1Cl)C1(F)CC1 (stereo not shown) [I-640] |
| 2.73^[a] | CCCC(O)(Cn1cncc1C#N)c1ccc(F)cc1Cl (stereo not shown) [I-402] |
| 3.00^[a] | CCCCCCC(O)(Cn1cncc1C#N)C1(F)CC1 (stereo not shown) [I-399] |
| 2.49^[a] | N#Cc1cncn1CC(O)(c1cc(F)cc(Cl)c1Cl)C1(F)CC1 (stereo not shown) [I-568] |
| 3.19^[a] | N#Cc1cncn1CC(O)(CCC1CCCCC1)C1(F)CC1 (stereo not shown) [I-662] |
| 2.11^[a] | N#Cc1cncn1CC(O)(C#CC1CC1)C1(Cl)CC1 (stereo not shown) [I-692] |
| 2.76^[a] | N#Cc1cncn1CC(O)(c1cc(Cl)cc(Br)c1)C1(F)CC1 (stereo not shown) [I-536] |
| 4.15^[a] | N#Cc1cncn1CC(O)(c1ccc(C#CC2CCCC2)cc1Cl)C1(Cl)CC1 (stereo not shown) [I-656] |

| LogP | Compound |
| --- | --- |
| 2.64^[a] | N#Cc1cncn1CC(O)(C#CC1CCCCC1)C1(F)CC1 (stereo not shown) [I-543] |
| 2.53^[a] | N#Cc1cncn1CC(O)(c1ccc(F)cc1F)C1CCC1 (stereo not shown) [I-447] |
| 2.78^[a] | N#Cc1cncn1CC(O)(CC1CC1)c1ccc(Cl)c(Cl)c1 (stereo not shown) [I-488] |
| 3.99^[a] | N#Cc1cncn1CC(O)(c1ccc(C#CC2CCCC2)cc1F)C1(Cl)CC1 (stereo not shown) [I-649] |
| 2.31^[a] | N#Cc1cncn1CC(O)(c1cc(Br)ccc1F)C1(F)CC1 (stereo not shown) [I-631] |
| 2.73^[a] | CC(C)(C)C(O)(Cn1cncc1C#N)c1ccc(Cl)cn1 (stereo not shown) [I-528] |
| 2.93^[a] | N#Cc1cncn1CC(O)(CC1CC1)c1cc(Cl)cc(Br)c1 (stereo not shown) [I-531] |
| 2.60^[a] | N#Cc1cncn1CC(O)(c1ccc(Cl)c(F)c1F)C1(Cl)CC1 (stereo not shown) [I-629] |
| 2.76^[a] | N#Cc1cncn1CC(O)(c1ccc(Cl)c(Cl)c1F)C1(Cl)CC1 (stereo not shown) [I-630] |
| 2.41^[a] | N#Cc1cncn1CC(O)(c1ccc(Cl)c(F)c1F)C1(F)CC1 (stereo not shown) [I-637] |
| 2.68^[a] | CC1(C(O)(Cn2cncc2C#N)c2ccc(Cl)cc2F)CC1 (stereo not shown) [I-441] |
| 2.36^[a] | COc1c(Cl)ccc(C(O)(Cn2cncc2C#N)C2(F)CC2)c1F (stereo not shown) [I-527] |
| 3.83^[a] | N#Cc1cncn1CC(O)(CCCC1CCCCC1)C1CC1 (stereo not shown) [I-661] |
| 2.66^[a] | N#Cc1cncn1CC(O)(c1ccc(Cl)cc1Br)C1(F)CC1 (stereo not shown) [I-386] |
| 3.71^[a] | N#Cc1cncn1CC(O)(CCCC1CCCCC1)C1(F)CC1 (stereo not shown) [I-672] |
| 2.19^[a] | CC1(C(O)(Cn2cncc2C#N)c2ccc(F)cc2)CC1 (stereo not shown) [I-450] |
| 2.47^[a] | N#Cc1cncn1CC(O)(c1cc(Br)c(F)cc1F)C1(F)CC1 (stereo not shown) [I-573] |

Continued, compound first:

| Compound | LogP |
| --- | --- |
| N#Cc1cncn1CC(O)(c1ccc(F)cc1)C1(Cl)CC1 (stereo not shown) [I-248] | 2.21^[a] |
| CC(O)(Cn1cncc1Cl)c1ccc(Oc2ccc(OC(F)(F)F)cc2)cc1Cl (stereo not shown) [I-158] | 3.06^[a] |
| OC(Cn1cncc1Br)c1ccc(Oc2ccc(Cl)cc2)cc1Br (stereo not shown) [I-24] | 2.68^[a] |
| CCCC(C)C(O)(Cn1cncc1C#N)c1ccc(Cl)cc1 (single isomer, unassigned) [I-327] | 3.08^[a] |
| N#Cc1cncn1CC(O)(c1ccc(F)nc1F)C1(Cl)CC1 (stereo not shown) [I-550] | 1.98^[a] |
| CC(O)(Cn1cncc1Cl)c1ccc(Oc2ccc(OC(F)(F)F)cc2)c(Br)c1 (stereo not shown) [I-157] | 2.90^[a] |
| C=CCOC(Cn1cncc1C#N)c1ccc(Oc2ccc(Br)cc2)cc1C(F)(F)F (stereo not shown) [I-89] | 4.69^[a] |
| N#Cc1cncn1CC(O)(c1ccc(F)cc1Cl)C1(Cl)CC1 (stereo not shown) [I-236] | 2.35^[a] |
| N#Cc1cncn1CC(O)(CCc1ccc(OC(F)(F)F)c(F)c1)C1(Cl)CC1 (stereo not shown) [I-359] | 3.31^[a] |
| CC(O)(Cn1cncc1C#N)c1ccc(Oc2ccc(I)cc2)cc1Br (stereo not shown) [I-217] | 3.81^[a] |
| CCCCCC(O)(Cn1cncc1C#N)c1ccc(Cl)cc1Cl (stereo not shown) [I-302] | 3.83^[a] |
| N#Cc1cncn1CC(O)(C#Cc1ccccc1Cl)C1(Cl)CC1 (stereo not shown) [I-324] | 2.73^[a] |
| N#Cc1cncn1CC(O)(c1c(F)cccc1Cl)C1(Cl)CC1 (stereo not shown) [I-339] | 2.32^[a] |
| CC(O)(Cn1cncc1C#N)c1cnc(Oc2ccc(C(F)(F)F)cc2)cc1C(F)(F)F (stereo not shown) [I-251] | 3.51^[a] |
| CCOC(Cn1cncc1F)c1ccc(Oc2ccc(Cl)cc2)cc1C(F)(F)F (stereo not shown) [I-107] | 3.54^[a] |
| CC(O)(Cn1cncc1C#N)c1ccc(Oc2ccc(Cl)cc2)cc1F (stereo not shown) [I-188] | 3.20^[a] |
| CC(O)(Cn1cncc1Cl)c1ccc(Oc2ccc(Br)cc2)cc1Cl (stereo not shown) [I-173] | 2.80^[a] |
| OC(Cn1cncc1Cl)c1ccc(Oc2ccccn2)cc1Cl (stereo not shown) [I-80] | 1.53^[a] |
| N#Cc1cncn1CC(O)c1ccc(Oc2ccc(S(F)(F)(F)(F)F)cc2)nc1C(F)(F)F (stereo not shown) [I-146] | 3.35^[a] |
| N#Cc1cncn1CC(O)(c1ccc(/C=C/C2CC2)cc1Cl)C1(Cl)CC1 (stereo not shown) [I-365] | 3.37^[a] |
| CC(=O)OC(Cn1cncc1F)c1ccc(Oc2ccc(Cl)cc2)cc1C(F)(F)F (stereo not shown) [I-104] | 3.18^[a] |
| N#Cc1cncn1CC(O)(c1ccc(Cl)cc1)C1(Cl)CC1 (stereo not shown) [I-232] | 2.49^[a] |
| CC(O)(Cn1cncc1Br)c1ccc(Oc2ccc(Br)cc2)cc1Br (stereo not shown) [I-184] | 3.06^[a] |
| N#Cc1cncn1CC(O)c1ccc(Oc2ccc(C(F)(F)F)cc2)cc1C(F)(F)F (stereo not shown) [I-53] | 3.52^[a] |
| COC(Cn1cncc1C#N)c1ccc(Oc2ccc(Cl)cc2)cc1Br (stereo not shown) [I-61] | 4.08^[a] |
| CC(C)(C)CC(O)(Cn1cncc1C#N)c1ccc(Cl)cc1F (stereo not shown) [I-260] | 3.44^[a] |
| CC(C)(C)CC(O)(Cn1cncc1C#N)c1ccc2occc2c1 (stereo not shown) [I-369] | 2.88^[a] |
| COCOC(Cn1cncc1C#N)c1ccc(Oc2ccc(Cl)cc2)cc1C(F)(F)F (stereo not shown) [I-82] | 4.03^[a] |

| Compound | LogP |
| --- | --- |
| CCOC(Cn1cncc1Br)c1ccc(Oc2ccc(Cl)cc2)cc1Br (stereo not shown) [I-56] | 3.99^[a] |
| CCc1cc(Cl)ccc1C(O)(Cn1cncc1C#N)C1(Cl)CC1 (stereo not shown) [I-335] | 3.00^[a] |
| OC(Cn1cncc1Cl)c1ccc(Oc2ccc(Cl)cc2)cc1C(F)F (stereo not shown) [I-71] | 2.45^[a] |
| N#Cc1cncn1CC(O)c1ccc(Oc2ccc(Cl)nc2)nc1C(F)(F)F (stereo not shown) [I-151] | 2.37^[a] |
| CC(C)(C)c1ccc(C(O)(Cn2cncc2C#N)C2(Cl)CC2)cc1 (stereo not shown) [I-247] | 3.29^[a] |
| OC(Cn1cncc1Cl)c1ccc(Oc2ccc(Cl)cc2)cc1Br (stereo not shown) [I-23] | 2.54^[a] |
| N#Cc1cncn1CC(O)c1cnc(Oc2ccc(Br)cc2)cc1C(F)F (stereo not shown) [I-134] | 2.43^[a] |
| N#Cc1cncn1CC(O)c1ccccc1Br (stereo not shown) [I-140] | 1.62^[a] |
| N#Cc1cncn1CC(O)c1cnc(Oc2ccc(Cl)cc2)cc1C(F)(F)F (stereo not shown) [I-120] | 2.87^[a] |
| COC(Cn1cncc1Cl)c1ccc(Oc2ccc(Br)cc2)cc1Br (stereo not shown) [I-52] | 3.76^[a] |
| CC(O)(Cn1cncc1F)c1ccc(Oc2ccc(C(F)F)cc2)nc1C(F)(F)F (stereo not shown) [I-295] | 2.15^[a] |
| COC(Cn1cncc1Br)c1ccc(Oc2ccc(Cl)cc2)cc1Br (stereo not shown) [I-50] | 3.59^[a] |
| OC(Cn1cncc1F)c1ccc(Oc2ccc(C(F)F)cc2)nc1C(F)(F)F (stereo not shown) [I-148] | 2.20^[a] |
| CC(O)(Cn1cncc1Br)c1ccc(Oc2ccc(Cl)cc2)cc1Cl (stereo not shown) [I-198] | 2.75^[a] |
| OC(Cn1cncc1Cl)c1ccc(Oc2ccc(C(F)(F)F)cc2)cc1C(F)(F)F (stereo not shown) [I-35] | 3.00^[a] |
| CC(O)(Cn1cncc1C#N)c1ccc(Oc2ccc(Cl)cc2)cc1Br (stereo not shown) [I-216] | 3.50^[a] |
| CC(O)(Cn1cncc1F)c1ccc(Oc2ccc(S(F)(F)(F)(F)F)cc2)nc1C(F)(F)F (stereo not shown) [I-297] | 2.62^[a] |
| N#Cc1cncn1CC(O)c1ccc(Oc2ccc(Cl)cc2)cc1C(F)(F)F (stereo not shown) [I-41] | 3.35^[a] |
| COC(Cn1cncc1C(F)(F)F)c1ccc(Oc2ccc(Cl)cc2)cc1F (stereo not shown) [I-93] | 4.34^[a] |
| CC(O)(Cn1cncc1Cl)c1ccc(Oc2ccc(C(F)(F)F)cc2)cc1Cl (stereo not shown) [I-159] | 3.02^[a] |
| N#Cc1cncn1CC(O)c1cnc(Oc2ccc(Cl)nc2)cc1C(F)(F)F (stereo not shown) [I-152] | 2.32^[a] |
| C[Si](C)(C)CC(O)(Cn1cncc1C#N)c1ccc(C(F)(F)F)cc1 (stereo not shown) [I-269] | 3.55^[a] |
| CC(C)(C)CC(O)(Cn1cncc1C#N)c1cccc(F)c1Cl (stereo not shown) [I-368] | 3.15^[a] |
| CC(O)(Cn1cncc1Cl)c1cnc(Oc2ccc(Cl)cc2)cc1C(F)(F)F (stereo not shown) [I-175] | 2.62^[a] |
| CC(C)CC(O)(Cn1cncc1C#N)c1ccc(Cl)cc1 (stereo not shown) [I-285] | 2.70^[a] |
| CC(O)(Cn1cncc1C#N)c1ccc(Oc2ccc(Cl)cc2F)nc1C(F)(F)F (stereo not shown) [I-279] | 3.14^[a] |
| CCCCC(O)(Cn1cncc1C#N)c1ccc(C(F)(F)F)cc1 (stereo not shown) [I-277] | 2.94^[a] |

Same assay, conditions: HPLC on reversed phase columns, method [a]

| Compound | chromatographic logP |
| --- | --- |
| C[Si](C)(C)C#CCOc1ccc(C(O)(Cn2cncc2C#N)C2(F)CC2)c(F)c1 (stereo not shown) [I-415, 3-[2-(1-fluorocyclopropyl)-2-[2-fluoro-4-(3-trimethylsilylprop-2-ynoxy)phenyl]-2-hydroxy-ethyl]imidazole-4-carbonitrile] | 3.68 |

Same assay, conditions: reversed phase HPLC column; method [a]: LC-UV, acidic range, 0.1% formic acid in water and acetonitrile as eluent (linear gradient from 10% to 95% acetonitrile)

| chromatographic logP | Compound |
| --- | --- |
| 3.41 | O=C(Cn1cncc1Cl)c1ccc(Oc2ccc(OC(F)(F)F)cc2)c(Br)c1 [IX-10] |
